Patent publication US4454123A, “O-xylopyranoside series compounds and methods of use” (Seikagaku Kogyo Co. Ltd., priority 1980, dated 1984)
“Also recorded” adds a separate entry of the source. Like-named read-outs stand apart in the source and are kept apart here.

Legend:
[1] = tested on: Sarcoma-180; experiment: Activity against a transplantable cancer, Sarcoma-180 (Test Example 7); type: in vivo, ICR-JCL mice; conditions: Mus musculus, Sarcoma-180, ip, 240 h, 100 mg/kg ip once a day for 10 days; read-out: I.R. (inhibition ratio, Sarcoma-180 tumor weight)
Method: Sarcoma-180 cells (1×10^6 cells) were inoculated subcutaneously into the back skin of each of ICR-JCL mice.
Chemotherapy was given intraperitoneally 24 hrs. after inoculation and performed once a day for 10 days. Each specimen to be administered was prepared by dissolving or suspending 30 mg of each compound according to this invention in 1 ml of a physiological saline or in 1 ml of a 0.2% solution of carboxymethylcellulose in a physiological saline, respectively.
All the solutions and the suspensions thus prepared were injected at a volume of 0.1 ml as a single dose (100 mg/Kg).
The inhibition ratio (%) was calculated according to the following equation: […]
wherein T represents the mean weight of the tumor Sarcoma-180 in a tested group of mice; and C represents the mean weight of the tumor in a control group of mice.

[2] = Acute toxicity (LD50) by oral or intraperitoneal administration to ddY mice (Test Example 6); type: in vivo; conditions: mouse, in vivo, 7 days
Method: The acute toxicity of the compound according to this invention was determined by forced oral or intraperitoneal administration thereof to ddY mice.
To prepare each specimen to be administered, a predetermined amount of each compound shown in Table 5 was dissolved in a physiological saline or suspended in a 0.2% solution of carboxymethylcellulose in a physiological saline. Each specimen was administered orally to a ddY mouse via its stomach tube or injected intraperitoneally.

[3] = tested on: synthesis of [35S]glycosaminoglycan in epiphysial cartilages; experiment: Recovery in the rate of 35S uptake in cartilage in which glycosaminoglycan synthesis was inhibited by cycloheximide (Test Examples 4, 5); type: cell-based, chick embryos; conditions: for effectiveness as initiator for the synthesis of chondroitin sulfate: 1.0 mM solution in DMSO, in words; for Rate of 35S uptake: cycloheximide 0.3 mM; for 35S uptake as compared with the case where no xylopyranoside was added: 0.02 mM solution in DMSO
Method: (§1) Epiphysial cartilages were taken from chick embryos aged 12 days in the Tyrode's medium under ice-cooling, and excess tissues were removed therefrom. To 150 mg. of cartilages corresponding to five embryos, 5 ml. of BGJb [a completely synthetic culture medium prepared according to a recipe of GIBCO (Grand Island Biological Company)] was added, followed by pre-incubation at a temperature of 37° C. After replacing the culture medium, further 1 ml. of BGJb and 5 μCi Na2^35 SO4 were added, and the culture system was kept at 37° C. for 3 hours. The culture medium was then replaced by 1 ml. of a fresh chase medium containing no radio active isotope. After keeping the culture system at 37° C. for 1 hour, the culture medium was separated from the tissues. To study the effects of the xyloside compound on the synthesis of glycosaminoglycan, the xyloside compound was added in the predetermined concentration to the pre-incubation and incubation media.
(§2) After the incubation, the labeled medium containing Na2^35 SO4 was combined with the chase medium. Pronase-P (trade name) (available from Kaken Kagaku Co., Ltd.) was added thereto in a 0.5 M tris-HCl buffer solution (pH 8.0), and the resulting mixture was digested at 50° C. for 16 hours. The digested reaction mixture was then subjected to gel filtration through a column (1.5×14 cm.) packed with Bio-Gel P-2 (available from Bio-Rad Company) using a 0.2 M ammonium formate solution as an eluate. In this way, the Vo fraction was collected and was then freeze-dried to give a crude glycosaminoglycan.
(§3) On the other hand, ice-cold 4 M guanidine hydrochloride was added to the tissues which were previously separated from the culture medium. The resulting mixture was left to stand overnight at a temperature of -20° C., and then homogenized. The obtained homogenate was left to stand overnight at room temperature and centrifuged at a speed of 8,500 rpm to obtain a supernatant. To the obtained liquid, water was added in an amount threefold that of the supernatant. Then, a 95% ethyl alcohol (containing 1.3% of potassium acetate) was added to the resulting mixture in an amount threefold that of the mixture to obtain a precipitate. This procedure was repeated twice, and the combined precipitates were dried in a desiccator. The obtained precipitates were dissolved in a 0.02 M tris-HCl buffer solution (pH 8.0) and digested with Pronase-P in the manner similar to the culture medium described above, thereby obtaining a crude glycosaminoglycan.
(§4) According to the same procedure as in Test example 1, a crude glycosaminoglycan was obtained.
As the xyloside compound, publicly-known methyl 1-thio-β-D-xylopyranoside and n-butyl 1-thio-β-D-xylopyranoside,and six compounds according to the present invention viz. n-heptyl 1-thio-β-D-xylopyranoside, n-nonyl 1-thio-β-D-xylopyranoside, n-decyl 1-thio-β-D-xylopyranoside, n-undecyl […], n-lauryl 1-thio-β-D-xylopyranoside and n-cetyl 1-thio-β-D-xylopyranoside were used. The effects of these compounds on the total amount of [^35 S]glycosaminoglycan synthesized (^35 S uptake amount) were investigated.
That is, after the effect of the addition of DMSO (dimethyl sulfoxide) which is a solvent was investigated, […], thereby inhibiting the synthesis of [^35 S]glycosaminoglycan by around up to 95%. Subsequently, to the medium in which the synthesis of glycosaminoglycan had been inhibited, there was added each solution of the xyloside compound in DMSO having various concentrations to investigate the recovery in the rate of the ^35 S uptake (the relative value expressed by percentage ^35 S uptake relative to the amount of uptake in a control medium to which no xylpyranoside compound was added).
According to the same procedure as in Example 1, a crude glycosaminoglycan was obtained. […]

[4] = tested on: synthesis of chondroitin sulfate in epiphysial cartilages; experiment: Effect of xyloside compounds on synthesis of [35S]glycosaminoglycan (chondroitin sulfate) in epiphysial cartilage culture (Test Examples 1-3); type: cell-based, chick embryos; conditions: for concentration required compared with O-β-D-xylopyranoside compounds / total 35S uptake amount of glycosaminoglycan as the concentration of the xyloside compound rose / effectiveness as initiator for the synthesis of chondroitin sulfate: in words; for total 35S uptake amount of glycosaminoglycan as the concentration of the xyloside compound rose: concentration in culture medium varied; for activity at 1000 µM: Gallus gallus
Method: as §1, §2, §3
As the xyloside compound, conventional O-paranitrophenyl-β-D-xylopyranoside, and two compounds according to the present invention viz. C-n-butyl-β-D-xylopyranoside and C-ethyl-β-D-xylopyranoside were used. The effects of these xyloside compounds on the total amount of [^35 S] glycosaminoglycan synthesized (^35 S uptake amount), the amount thereof liberated to the culture medium and the amount thereof remaining in the tissues were as shown in FIGS. 1 to 3.
In each Figure, the vertical axis denotes the amount of [^35 S]chondroitin sulfate (^35 S cpm×10^-4 /μmol.uronic acid) and the horizontal axis denotes the concentration (mM) of each xylopyranoside compound in the culture medium.
as §4
As the xyloside compound, conventional O-paranitrophenyl β-D-xylopyranoside and N-para(sodiumoxycarbonyl)phenyl-D-xylopyranosylamine, and three compounds according to the present invention viz. para(sodiumoxycarbonyl)phenyl β-D-xylopyranoside, C-para(sodiumoxycarbonyl)benzyl-β-D-xylopyranoside and para(sodiumoxycarbonyl)phenyl 1-thio-β-D-xylopyranoside were used. The effects of these xyloside compounds on the total amount of [^35 S]glycosaminoglycan synthesized (^35 S uptake amount) were shown in FIGS. 3 to 7. […]

[5] = ip, intraperitoneal, read-out: LD50 (ip)

Compound `O=C(O)c1ccc(O[C@@H]2OC[C@@H](O)[C@H](O)[C@H]2O)cc1` [Para(potassiumoxycarbonyl)phenyl-β-D-xylopyranoside] has an inhibition in vivo at 100 mg/kg [1] of 44.8%, an LD50 at 168 h [2, 5] of 3020 mg/kg and an LD50 at 168 h ([2]; po, read-out: LD50 (po)) of 9800 mg/kg.
In the case of `CCCCCCC[C@@H]1OC[C@@H](O)[C@H](O)[C@H]1O` [C-n-Heptyl-β-D-xylopyranoside], the inhibition in vivo at 100 mg/kg [1] was 54.8%, the LD50 at 168 h [2, 5] was 1040 mg/kg and the LD50 at 168 h ([2]; po, read-out: LD50 (po)) was 4200 mg/kg. The “effectiveness as initiator for the synthesis of chondroitin sulfate” value (“effectiveness as initiator” below) [3] was “extremely effective initiators for the synthesis of chondroitin sulfate”, the “Rate of 35S uptake” value ([3]; xyloside 0.2 mM, DMSO 0.1%) was 114.0% and the “Rate of 35S uptake” value ([3]; xyloside 0.5 mM, DMSO 0.1%) was 183.0%. For the same compound, the “Rate of 35S uptake” value ([3]; xyloside 1.0 mM, DMSO 0.1%) was 193.0%.
Compound `O=C(O)c1ccc(S[C@@H]2OC[C@@H](O)[C@H](O)[C@H]2O)cc1` [Para(lithiumoxycarbonyl)phenyl 1-thio-β-D-xylopyranoside] has an inhibition in vivo at 100 mg/kg [1] of 47.2%, an LD50 at 168 h [2, 5] of 2700 mg/kg and an LD50 at 168 h ([2]; po, read-out: LD50 (po)) of 7800 mg/kg.
In the case of `O=C(O)c1ccc(NC2OC[C@@H](O)[C@H](O)[C@H]2O)cc1` (stereo partly drawn) [N-para(sodiumoxycarbonyl)phenyl-D-xylopyranosylamine], the “concentration required compared with O-β-D-xylopyranoside compounds” value [4] was “requires higher concentrations as compared with O-paranitrophenyl-β-D-xylopyranoside” and the “total 35S uptake amount of glycosaminoglycan as the concentration of the xyloside compound rose” value (from here on “total 35S uptake amount”) [4] was “shows a similar tendency; also recorded: does not change remarkably within the range of the concentration of 0 to 20 mM of the compound and that the increase in the total uptake amount thereafter is mild”.
With `O[C@@H]1[C@@H](O)[C@H](Cc2ccccc2)OC[C@H]1O` [C-Benzyl-1-β-D-xylopyranoside, C-Benzyl-β-D-xylopyranoside] the inhibition in vivo at 100 mg/kg [1] was 30.9%, the LD50 at 168 h [2, 5] was 2400 mg/kg and the LD50 at 168 h ([2]; po, read-out: LD50 (po)) was 7200 mg/kg.
`O=C(O)c1ccc(C[C@@H]2OC[C@@H](O)[C@H](O)[C@H]2O)cc1` [C-Para(lithiumoxycarbonyl)benzyl-β-D-xylopyranoside] gave an inhibition in vivo at 100 mg/kg [1] of 44.7%, an LD50 at 168 h [2, 5] of 2500 mg/kg and an LD50 at 168 h ([2]; po, read-out: LD50 (po)) of 8600 mg/kg.
For `CCCCCCCS[C@@H]1OC[C@@H](O)[C@H](O)[C@H]1O` [n-heptyl 1-thio-β-D-xylopyranoside, n-Heptyl 1-thio-β-D-xylopyranoside], the “35S uptake as compared with the case where no xylopyranoside was added” value [3] was “around twice”.
In the case of `O=[N+]([O-])c1ccc(O[C@@H]2OC[C@@H](O)[C@H](O)[C@H]2O)cc1` [O-paranitrophenyl-β-D-xylopyranoside], the activity at 1000 µM ([4]; at 1 mM, read-out: [35S]glycosaminoglycan liberated to the culture medium) was 95%, the activity at 1000 µM ([4]; at 1 mM, read-out: [35S]glycosaminoglycan remaining in the tissues) was 11% and the “35S uptake of glycosaminoglycan” value ([4]; at 1 mM) was 40800 cpm. The “35S uptake of glycosaminoglycan relative to control” value ([4]; at 1 mM) was 2.35 times that of the control, the “[35S]glycosaminoglycan remaining in the tissues” value ([4]; at 1 mM) was 11 % of the control and the “effectiveness as initiator” value [4] was “extremely effective as an initiator for the synthesis of chondroitin sulfate; also recorded: extremely effective as the initiator for the synthesis of condroitin sulfate”. For the same compound, the “total 35S uptake amount” value [4] was “increased”.
With `NC(=O)c1ccc(NC2OC[C@@H](O)[C@H](O)[C@H]2O)cc1` (stereo partly drawn) [N-carbamoylphenyl-D-xylopyranosylamine, N-Paracarbamoylphenyl-D-xylopyranosylamine] the “concentration required compared with O-β-D-xylopyranoside compounds” value [4] was “requires higher concentration as compared with the O-β-D-xylopyranoside compounds”, the “effectiveness as initiator” value [4] was “good initiator for the synthesis of chondroitin sulfate” and the “total 35S uptake amount” value [4] was “increased as the concentration of the xyloside compound rose”.
In the case of `CC(C)CCS[C@@H]1OC[C@@H](O)[C@H](O)[C@H]1O` [Isoamyl 1-thio-β-D-xylopyranoside], the inhibition in vivo at 100 mg/kg [1] was 35.6%, the LD50 at 168 h [2, 5] was 1850 mg/kg and the LD50 at 168 h ([2]; po, read-out: LD50 (po)) was 5800 mg/kg.
For `CCCCCCCCS[C@@H]1OC[C@@H](O)[C@H](O)[C@H]1O` [n-octyl 1-β-D-xylopyranoside, n-Octyl 1-thio-β-D-xylopyranoside], the “35S uptake as compared with the case where no xylopyranoside was added” value [3] was “around twice”.
For `C[C@@H]1C[C@@H]([C@H](O)CC2CC(=O)NC(=O)C2)C(=O)[C@@H](C)C1` [cycloheximide, reference compound], the inhibition at 30 µM ([3]; Gallus gallus, read-out: inhibition of the synthesis of [35S]glycosaminoglycan) was roughly 95%, the “Rate of 35S uptake” value ([3]; no xyloside, DMSO 0%, relative to control medium) was 5.5% and the “Rate of 35S uptake” value ([3]; no xyloside, DMSO 0.1%, relative to control medium) was 4.9%. For the same compound, the “Rate of 35S uptake” value ([3]; no xyloside, DMSO 0.2%, relative to control medium) was 6.1%, the “Rate of 35S uptake” value ([3]; no xyloside, DMSO 0.5%, relative to control medium) was 6.1% and the “Rate of 35S uptake” value ([3]; no xyloside, DMSO 1.0%, relative to control medium) was 5.8%.
For `CCCCCC[C@@H]1OC[C@@H](O)[C@H](O)[C@H]1O` [C-n-hexyl-β-D-xylopyranoside, C-n-Hexyl-β-D-xylopyranoside], the “effectiveness as initiator” value [3] was “extremely effective initiators for the synthesis of chondroitin sulfate”, the “Rate of 35S uptake” value ([3]; xyloside 0.2 mM, DMSO 0.1%) was 82.0% and the “Rate of 35S uptake” value ([3]; xyloside 0.5 mM, DMSO 0.1%) was 148.0%. The “Rate of 35S uptake” value ([3]; xyloside 1.0 mM, DMSO 0.1%) was 196.0%.
With `CC(C)S[C@@H]1OC[C@@H](O)[C@H](O)[C@H]1O` [Isopropyl 1-thio-β-D-xylopyranoside] the inhibition in vivo at 100 mg/kg [1] was 30.4%, the LD50 at 168 h [2, 5] was 2200 mg/kg and the LD50 at 168 h ([2]; po, read-out: LD50 (po)) was 6700 mg/kg.
